These results are taken from PubChem BioAssay (NCI).

Among the test systems are OVCAR-3 ovarian; HOP-62 NSCLC; SW-620 colon; DU-145 prostate; COLO 205 colon; SK-MEL-2 melanoma; SNB-75 CNS; NCI-H226 lung; 786-0 renal; NCI-H23 lung.
Holding throughout (experiment): DTP human tumour cell line panel, 48 h

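Each compound was tested at five concentrations against cells in 96-well plates for 48 hours. GI50 marks 50% less growth. TGI is the concentration that stops growth completely.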

Broadly, the GI50 is the concentration at which growth is held to half of that of the control. By TGI is commonly meant the concentration at which net growth stops. Lower therefore signals greater sensitivity of the cells. Consider `N#CCCN(CCCN(CCCN(C(=O)Nc1ccccc1)c1ccccc1)C(=O)Nc1ccccc1)C(=O)Nc1ccccc1`, for which the GI50 with OVCAR-3 ovarian, with HOP-62 NSCLC, with SW-620 colon, in the assay on DU-145 prostate, in the assay on COLO 205 colon and in the assay on SK-MEL-2 melanoma was over 100 µM in each case. Further, the values for the GI50 in the assay on SNB-75 CNS and in the assay with 786-0 renal were 59.5 µM and over 100 µM, respectively. Moreover, the TGI with OVCAR-3 ovarian, in the assay with HOP-62 NSCLC, with SW-620 colon, in the assay on DU-145 prostate, with COLO 205 colon and in the assay with SK-MEL-2 melanoma was over 100 µM each time. Besides, the TGI with SNB-75 CNS, with NCI-H226 lung and in the assay on 786-0 renal was over 100 µM in each case.
Turning to `CC(=O)C(=Cc1ccc(C=C(C(C)=O)C(C)=O)cc1)C(C)=O`, the TGI with OVCAR-3 ovarian came to 5 µM; in the assay on HOP-62 NSCLC it was 6.38 µM; in the assay with SW-620 colon it was 1.83 µM; with DU-145 prostate, 11.9 µM; with COLO 205 colon it was 3.33 µM; with SK-MEL-2 melanoma, 5.54 µM. Moreover, the concentration for total growth inhibition (TGI) in the assay with NCI-H226 lung is 7.8 µM; with NCI-H23 lung, 4.59 µM; in the assay with 786-0 renal it was 5.84 µM.
As for `C[C@]12CCc3sc(NCCc4ccccc4)nc3C1=CC[C@@H]1[C@@H]2CC[C@]2(C)C(=O)CC[C@@H]12`, the GI50 is 2.08 µM in the assay on OVCAR-3 ovarian; 8.52 µM with HOP-62 NSCLC; 2.3 µM in the assay on SW-620 colon; 3.64 µM with DU-145 prostate; 3.03 µM in the assay on COLO 205 colon; 17 µM in the assay with SK-MEL-2 melanoma. The results for the GI50 with NCI-H226 lung, in the assay on NCI-H23 lung and in the assay on 786-0 renal were 2.42 µM, 5.03 µM and 2.82 µM, respectively. In addition, the TGI in the assay on OVCAR-3 ovarian is 4.83 µM; in the assay on HOP-62 NSCLC, over 100 µM; in the assay with SW-620 colon, 5.28 µM; in the assay on DU-145 prostate, over 100 µM; in the assay with COLO 205 colon it was 8.77 µM; in the assay with SK-MEL-2 melanoma, over 100 µM. Also, the figures for the TGI in the assay with NCI-H226 lung, with NCI-H23 lung and in the assay with 786-0 renal were 6.57 µM, over 100 µM and 9.61 µM, respectively.
As for `Cc1cc(O)c(C2=NN(c3ccc(S(N)(=O)=O)cc3)C(c3ccccc3Cl)C2)cc1Cl` (stereo not drawn), the GI50 with OVCAR-3 ovarian was 1.89 µM; with HOP-62 NSCLC it was 2.03 µM; in the assay on DU-145 prostate it was 2.01 µM; in the assay on COLO 205 colon, 1.81 µM; in the assay with SK-MEL-2 melanoma, 11.9 µM; in the assay with SNB-75 CNS, 2.23 µM. In addition, the GI50 is 3.02 µM in the assay on NCI-H226 lung, 1.79 µM in the assay with NCI-H23 lung and 2.25 µM in the assay with 786-0 renal. Besides, the TGI in the assay with OVCAR-3 ovarian turned out to be 3.58 µM; with HOP-62 NSCLC, 4.16 µM; in the assay with DU-145 prostate, 3.85 µM; in the assay on COLO 205 colon, 3.31 µM; in the assay on SK-MEL-2 melanoma, 31 µM; in the assay on SNB-75 CNS it was 8.83 µM. For the same compound, the TGI with NCI-H226 lung stood at 9.44 µM; in the assay on NCI-H23 lung it was 3.58 µM; with 786-0 renal it was 4.52 µM.
Consider `O=C(Nc1ccncc1)C(=O)c1cn(Cc2ccc(Cl)cc2)c2ccccc12`, for which the GI50 in the assay with OVCAR-3 ovarian was 0.0267 µM; in the assay on HOP-62 NSCLC, 0.0597 µM; in the assay with SW-620 colon, 0.0332 µM; in the assay with DU-145 prostate, 0.051 µM; with COLO 205 colon it was 0.232 µM; with SNB-75 CNS, 0.0375 µM. The concentration for 50% growth inhibition (GI50) in the assay with NCI-H226 lung was 0.276 µM; with NCI-H23 lung, 0.0548 µM; in the assay with 786-0 renal it was 0.0533 µM. Moreover, the TGI is 0.0652 µM with OVCAR-3 ovarian; over 100 µM in the assay with HOP-62 NSCLC; over 100 µM with SW-620 colon; over 65 µM with DU-145 prostate; over 22.3 µM in the assay with COLO 205 colon; 3.79 µM with SNB-75 CNS. The TGI with NCI-H226 lung, in the assay with NCI-H23 lung and in the assay on 786-0 renal was over 100 µM throughout.
Turning to `c1csc(-c2cn3nc(-c4c[nH]c5ccccc45)sc3n2)c1`, the GI50 in the assay on OVCAR-3 ovarian is 0.924 µM; in the assay on HOP-62 NSCLC, 1.58 µM; with SW-620 colon, 0.434 µM; in the assay on DU-145 prostate it was 2.86 µM; in the assay on SK-MEL-2 melanoma, 1.08 µM; in the assay with SNB-75 CNS, 0.445 µM. The figures for the GI50 in the assay with NCI-H226 lung, in the assay on NCI-H23 lung and in the assay with 786-0 renal were 9.94 µM, 4.47 µM and 3.06 µM, respectively. Moreover, the TGI with OVCAR-3 ovarian is 9.02 µM; in the assay on HOP-62 NSCLC, 39.9 µM; with SW-620 colon it was over 100 µM; in the assay on DU-145 prostate it was over 100 µM; in the assay on SK-MEL-2 melanoma, 23.8 µM; in the assay on SNB-75 CNS it was 8.09 µM. Moreover, the TGI in the assay on NCI-H226 lung, with NCI-H23 lung and with 786-0 renal was over 100 µM each time.
As for `OCC(O)C(Cl)CCl` (stereo not drawn), the TGI with OVCAR-3 ovarian, with HOP-62 NSCLC, in the assay with SW-620 colon, with DU-145 prostate, in the assay on COLO 205 colon and in the assay on SNB-75 CNS was over 100 µM in each case. In addition, the TGI with NCI-H226 lung, in the assay with NCI-H23 lung and with 786-0 renal was over 100 µM each time.
Take `Cc1cc(C(=C2C=CC(=Nc3ccccc3)C=C2)c2ccc(Nc3ccccc3)cc2)ccc1N`: the GI50 was 0.293 µM with OVCAR-3 ovarian; 0.29 µM in the assay on SW-620 colon; 0.507 µM in the assay with DU-145 prostate; 0.201 µM with COLO 205 colon; 0.216 µM in the assay with SK-MEL-2 melanoma; 0.598 µM with SNB-75 CNS. The GI50 in the assay on NCI-H226 lung was 0.446 µM; in the assay with NCI-H23 lung, 0.382 µM; with 786-0 renal it was 0.259 µM. Also, the TGI is 0.876 µM with OVCAR-3 ovarian; 1.05 µM with SW-620 colon; 1.58 µM with DU-145 prostate; 0.407 µM with COLO 205 colon; 0.529 µM in the assay on SK-MEL-2 melanoma; 2.22 µM with SNB-75 CNS. Moreover, the TGI with NCI-H226 lung was 1.72 µM; with NCI-H23 lung it was 1.69 µM; in the assay on 786-0 renal it was 0.709 µM.
Regarding `Cc1ccc(-c2nc(C#N)c(S(=O)(=O)n3nc(C)cc3N)o2)cc1`, the GI50 is 2.08 µM in the assay on OVCAR-3 ovarian; 17.7 µM with HOP-62 NSCLC; 7.8 µM with DU-145 prostate; 2.15 µM in the assay on COLO 205 colon; 15 µM in the assay on SK-MEL-2 melanoma; 13.7 µM in the assay with SNB-75 CNS. In addition, the GI50 with NCI-H226 lung is 15.6 µM; in the assay on NCI-H23 lung, 13.9 µM; with 786-0 renal it was 2.35 µM. The TGI in the assay with OVCAR-3 ovarian stood at 3.73 µM; with HOP-62 NSCLC, 35.1 µM; with DU-145 prostate it was 20.2 µM; in the assay on COLO 205 colon it was 4.19 µM; in the assay on SK-MEL-2 melanoma it was 32.3 µM; in the assay with SNB-75 CNS it was 27.1 µM. In addition, the figures for the TGI with NCI-H226 lung, with NCI-H23 lung and with 786-0 renal were 41.4 µM, 37.3 µM and 6.35 µM, respectively.
